Columns and labels:
[1] = 101.33 kPa, Liquid; for speed of sound: Sing-around technique in a fixed-path interferometer
[2] = xn = mol fraction of the nth substance listed; settings: 101 kPa, Liquid

CCCCCCCO [heptan-1-ol]
[1]
Settings	mass density [kg/m3]	speed of sound [m/s]
293.15 K	822.398	1344
298.15 K	818.894	1326.7
303.15 K	815.357	1309.9

CCCCCCCCO [octan-1-ol]
[1]
Settings	mass density [kg/m3]	speed of sound [m/s]
293.15 K	825.183	1364.3
298.15 K	821.732	1347.1
303.15 K	818.248	1330.2

CCCCCCCCCCO [decan-1-ol]
[1]
Settings	mass density [kg/m3]	speed of sound [m/s]
293.15 K	829.601	1396.2
298.15 K	826.198	1378.9
303.15 K	822.767	1361.7

CCCCCCCO [heptan-1-ol] + CCCCOCCCC
[2]
Settings	mass density [kg/m3]
293.15 K, x1 = 0.1017	773.953
293.15 K, x1 = 0.1519	776.565
293.15 K, x1 = 0.1998	779.042
293.15 K, x1 = 0.2503	781.671
293.15 K, x1 = 0.3495	786.842
293.15 K, x1 = 0.4019	789.598
293.15 K, x1 = 0.4529	792.309
293.15 K, x1 = 0.5013	794.907
293.15 K, x1 = 0.548	797.412
293.15 K, x1 = 0.6032	800.39
293.15 K, x1 = 0.6486	802.884
293.15 K, x1 = 0.7001	805.686
293.15 K, x1 = 0.7515	808.582
293.15 K, x1 = 0.7771	809.94
293.15 K, x1 = 0.8009	811.278
293.15 K, x1 = 0.8982	816.689
293.15 K, x1 = 0.947	819.42
298.15 K, x1 = 0.0513	767.002
298.15 K, x1 = 0.0991	769.571
298.15 K, x1 = 0.1526	772.412
298.15 K, x1 = 0.2019	775.005
298.15 K, x1 = 0.2506	777.565
298.15 K, x1 = 0.3033	780.366
298.15 K, x1 = 0.3498	782.806
298.15 K, x1 = 0.4	785.5
298.15 K, x1 = 0.4523	788.317
298.15 K, x1 = 0.4995	790.883
298.15 K, x1 = 0.5491	793.589
298.15 K, x1 = 0.6026	796.53
298.15 K, x1 = 0.6503	799.167
298.15 K, x1 = 0.6985	801.859
298.15 K, x1 = 0.7533	804.902
298.15 K, x1 = 0.8005	807.562
298.15 K, x1 = 0.8485	810.291
298.15 K, x1 = 0.8994	813.176
298.15 K, x1 = 0.9439	815.703
303.15 K, x1 = 0.0548	762.859
303.15 K, x1 = 0.1037	765.526
303.15 K, x1 = 0.1537	768.203
303.15 K, x1 = 0.2034	770.861
303.15 K, x1 = 0.2496	773.336
303.15 K, x1 = 0.3003	776.062
303.15 K, x1 = 0.3482	778.634
303.15 K, x1 = 0.3977	781.333
303.15 K, x1 = 0.4501	784.185
303.15 K, x1 = 0.4938	786.627
303.15 K, x1 = 0.5487	789.635
303.15 K, x1 = 0.6009	792.536
303.15 K, x1 = 0.6508	795.355
303.15 K, x1 = 0.6994	798.099
303.15 K, x1 = 0.7519	801.07
303.15 K, x1 = 0.8005	803.865
303.15 K, x1 = 0.851	806.755
303.15 K, x1 = 0.8994	809.543
303.15 K, x1 = 0.946	812.239

CCCCCCCCCCO [decan-1-ol] + CCCCOCCCC
[2]
Settings	mass density [kg/m3]
293.15 K, x1 = 0.1021	776.363
293.15 K, x1 = 0.1496	779.787
293.15 K, x1 = 0.1993	783.289
293.15 K, x1 = 0.25	786.71
293.15 K, x1 = 0.2996	789.984
293.15 K, x1 = 0.3412	792.683
293.15 K, x1 = 0.3978	796.258
293.15 K, x1 = 0.4468	799.27
293.15 K, x1 = 0.4978	802.397
293.15 K, x1 = 0.5495	805.461
293.15 K, x1 = 0.6009	808.42
293.15 K, x1 = 0.65	811.195
293.15 K, x1 = 0.6993	813.929
293.15 K, x1 = 0.7464	816.506
293.15 K, x1 = 0.7946	819.104
293.15 K, x1 = 0.8488	821.951
293.15 K, x1 = 0.9004	824.616
293.15 K, x1 = 0.95	827.118
298.15 K, x1 = 0.0516	768.307
298.15 K, x1 = 0.1006	772.051
298.15 K, x1 = 0.1498	775.68
298.15 K, x1 = 0.2012	779.315
298.15 K, x1 = 0.2522	782.834
298.15 K, x1 = 0.2996	786.011
298.15 K, x1 = 0.35	789.331
298.15 K, x1 = 0.3994	792.479
298.15 K, x1 = 0.4479	795.536
298.15 K, x1 = 0.4981	798.656
298.15 K, x1 = 0.5512	801.843
298.15 K, x1 = 0.5993	804.66
298.15 K, x1 = 0.6492	807.539
298.15 K, x1 = 0.6995	810.378
298.15 K, x1 = 0.7501	813.185
298.15 K, x1 = 0.7981	815.763
298.15 K, x1 = 0.8498	818.511
298.15 K, x1 = 0.9001	821.147
298.15 K, x1 = 0.9498	823.681
303.15 K, x1 = 0.0509	763.957
303.15 K, x1 = 0.1009	767.841
303.15 K, x1 = 0.1503	771.536
303.15 K, x1 = 0.1994	775.085
303.15 K, x1 = 0.25	778.691
303.15 K, x1 = 0.2996	782.028
303.15 K, x1 = 0.3498	785.36
303.15 K, x1 = 0.3992	788.589
303.15 K, x1 = 0.4451	791.54
303.15 K, x1 = 0.4944	794.601
303.15 K, x1 = 0.5509	798.05
303.15 K, x1 = 0.5921	800.526
303.15 K, x1 = 0.6514	803.989
303.15 K, x1 = 0.6896	806.226
303.15 K, x1 = 0.7493	809.528
303.15 K, x1 = 0.7963	812.111
303.15 K, x1 = 0.8475	814.866
303.15 K, x1 = 0.899	817.595
303.15 K, x1 = 0.9474	820.099

Reference: the NIST ThermoML archive (doi:10.1016/j.jct.2008.06.001)
